Laboratory results: patent US4786755A, “Diphenic acid monoamides” (Warner-Lambert Company, priority 1986, dated 1988)

Molecular target: T1, leukotriene receptor (Cavia porcellus, UniProt Q2NNR5)
T1 construct: 20 mg original tissue wet weight of guinea pig lung membranes; tissue Kuiper Rabbit Farm, Gary, IN (animals); host or cells: guinea pig lung, crude membranes
T1 sequence (Q2NNR5 1-340): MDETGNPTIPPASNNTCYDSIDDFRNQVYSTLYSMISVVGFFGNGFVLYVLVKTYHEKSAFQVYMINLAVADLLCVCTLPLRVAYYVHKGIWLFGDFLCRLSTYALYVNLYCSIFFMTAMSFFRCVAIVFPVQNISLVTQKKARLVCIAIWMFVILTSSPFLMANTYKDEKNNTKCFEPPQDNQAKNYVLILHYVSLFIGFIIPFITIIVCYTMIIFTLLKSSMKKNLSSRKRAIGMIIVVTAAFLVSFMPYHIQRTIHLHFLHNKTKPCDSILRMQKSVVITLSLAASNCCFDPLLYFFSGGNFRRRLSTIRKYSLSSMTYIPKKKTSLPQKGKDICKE
Experiment: Binding of ^3 H-Leukotriene D4 to Guinea Pig Lung Membranes (RBL)
Details: ^3 H-LTD4, guinea pig lung membranes; read-out: IC50 RBL1
Procedure: Additionally, the activity, of the compounds having the Formula I of the present invention is determined by the well known leukotriene receptor binding assay that is described by R. F. Bruns, W. J. Thomsen and T. A. Pugsley in Life Sciences, 33, 645 (1983) or the Herxheimer in vivo antiallergy test described in H. Herxheimer, J. Physiol. (London), Vol. 177, p. 251 (1952).
Binding of ^3 H-Leukotriene D4 to Guinea Pig Lung Membranes (RBL)
[14,15-^3 H]leukotriene D4 (^3 H-LTD4) (25 Ci/mmol and 40 Ci/mmol) is purchased from New England Nuclear. Unlabeled LTC4 is a gift of Ono Pharmaceuticals (Japan). LTC4, LTD4, and LTE4 are purchased as methyl esters from Paesel GmbH (Frankfurt, W. Germany). Concentrations of the Paesel leukotrienes are calculated from their absorbance at 280 nm. Leukotriene esters are saponified overnight under N2 in 3.3% potassium carbonate at room temperature. Tritiated leukotrienes are stored as received from New England Nuclear at -20° C. Ono LTC4 (5 μg/ml is stored at -60° C. in phosphate buffer pH 6.8. Saponified Paesel leukotrienes are stored at -60° C. in 3.3% potassium carbonate (pH 9.0-9.5). Aliquots of leukotrienes are taken from stock solutions immediately after thawing, after which the stock solutions are immediately refrozen. 2-Amino-2-(hydroxymethyl)-1,3-propanediol (Tris) is Sigma pH 7.7 pre-set crystals, and dimethylsulfoxide is Aldrich Gold Label.
Preparation of crude lung membranes
Two pairs of lungs (1.3 g) from freshly sacrificed 300 g male guinea pigs (older animals gave substantially lower binding) from Kuiper Rabbit Farm, Gary, IN are disrupted with a Polytron PT 10 (setting 4) for 30 seconds in 20 ml ice-cold 50 mM Tris adjusted with HCl to pH 7.7 at 25° C. (Tris buffer), filtered through a single layer of gauze to remove connective tissue, and centrifuged at 50,000 xg for ten min. The pellet is resuspended by homogenization with a Polytron in 20 ml Tris buffer, centrifuged at 50,000 xg for ten min., resuspended, incubated at 37° C. for 30 minutes, and centrifuged again. The final pellet is resuspended in Tris buffer and either used fresh or stored at -70° C.
All incubations are in triplicate for 60 minutes at 25° C. in 12×75 mm polystyrene tubes containing 1 ml Tris buffer with 20 mg original tissue wet weight of guinea pig lung membranes, 0.2 nM ^3 H-LTD4 (6,000-11,000 cpm), 10 mM MgCl2, and 1% dimethylsulfoxide. Leukotrienes are diluted in Tris buffer. All other test compounds are dissolved at 10 mM in dimethylsulfoxide on the same day as the experiment, and diluted in dimethylsulfoxide to 100× the final incubation concentration. Control incubations receive an equal volume (10 μl) of dimethylsulfoxide; the resulting concentration of dimethylsulfoxide had no effect on binding. ^3 H-LTD4 is diluted to 2 nM in Tris buffer. The membrane suspension (20 mg/0.89 ml) contains sufficient MgCl2 to give 10 mM final concentration in the incubation. […] All additions are performed at 0° C. Immediately after the last addition, the incubation is initiated by agitating the rack of tubes on a vortex mixer and warming to 25° C. in a water bath. Tubes are vortexed at least once more during the incubation to ensure that the membranes remained suspended. Incubations are terminated after 60 minutes by filtering under reduced pressure through 25 mm Whatman GF/B filters followed by rapid washing three times with 4 ml of ice-cold Tris buffer. Filters are added to scintillation vials with 8 ml Formula 947 (New England Nuclear), left overnight, shaken, and the radioactivity counted in a scintillation counter (efficiency 40%). Nonspecific binding, defined as binding of ^3 H-LTD4 in the presence of 100 nM LTC4, is 300-500 cpm for all lots of ^3 H-LTD4. Binding to the filters in the absence of tissue is about 100 cpm, and is not affected by unlabeled LTC4. Specific binding, defined as total binding minus nonspecific binding, varied considerably from lot to lot of ^3 H-LTD4. […]

| Compound | IC50 |
| --- | --- |
| O=C(O)c1ccccc1-c1ccccc1C(=O)Nc1cccc(CCCc2ccc(Cl)c(Cl)c2)c1 [Example 6, [1,1'-Biphenyl]-2-carboxylic acid, 2'-[[[3-[3-(3,4-dichlorophenyl)propyl]phenyl]amino]carbonyl]] | 1 µM |
| O=C(O)c1ccccc1-c1ccccc1C(=O)Nc1ccc(CCc2cc(C(F)(F)F)cc(C(F)(F)F)c2)cc1 [Example 13, [1,1'-Biphenyl]-2-carboxylic acid, 2'-[[[4-[2-[3,5-bis(trifluoromethyl)phenyl]ethyl]phenyl]amino]carbonyl]-] | 5.4 µM |
| CCCCCCCCCCc1ccc(NC(=O)c2ccccc2-c2ccccc2C(=O)O)cc1 [Example 20] | 11.2 µM |
| O=C(O)c1ccccc1-c1ccccc1C(=O)Nc1ccc(OCCCCc2ccccc2)cc1 [Example 44, [1,1'-Biphenyl]-2-carboxylic acid, 2'-[[[4-(4-phenylbutyloxy)phenyl]amino]carbonyl]-] | 1.2 µM |
| O=C(C=Cc1ccc(Cl)c(Cl)c1)c1ccc(NC(=O)c2ccccc2-c2ccccc2C(=O)O)cc1 [Example 46, [1,1'-Biphenyl]-2-carboxylic acid, 2'-[[[4-[1-oxo-3-(3,4-dichlorophenyl)-2-propenyl]phenyl]amino]-carbonyl]-] | 5.7 µM |
| O=C(C=Cc1ccc(Br)cc1)c1ccc(NC(=O)c2ccccc2-c2ccccc2C(=O)O)cc1 [Example 47, [1,1'-Biphenyl]-2-carboxylic acid, 2'-[[[4-[1-oxo-3-(4-bromophenyl)-2-propenyl]phenyl]amino]carbonyl]-] | 27.1 µM |
| CN(C)c1ccc(CCC(=O)c2ccc(NC(=O)c3ccccc3-c3ccccc3C(=O)O)cc2)cc1 [Example 48, [1,1'-Biphenyl]-2-carboxylic acid, 2'-[[[4-[1-oxo-3-(4-dimethylaminophenyl)propyl]phenyl]amino]carbonyl]-] | 53.1 µM |
| O=C(CCc1ccc(Cl)cc1)c1ccc(NC(=O)c2ccccc2-c2ccccc2C(=O)O)cc1 [Example 49, [1,1'-Biphenyl]-2-carboxylic acid, 2'-[[[4-[1-oxo-3-(4-chlorophenyl)propyl]phenyl]amino]carbonyl]-] | 7.5 µM |
| O=C(O)c1ccccc1-c1ccccc1C(=O)Nc1cccc(CCCCc2ccc(Cl)c(Cl)c2)c1 [Example 50, [1,1'-Biphenyl]-2-carboxylic acid, 2'-[[[3-[4-(3,4-dichlorophenyl)butyl]phenyl]amino]carbonyl]-] | 0.7 µM |
| O=C(CCc1ccc(Br)cc1)c1ccc(NC(=O)c2ccccc2-c2ccccc2C(=O)O)cc1 [Example 51, [1,1'-Biphenyl]-2-carboxylic acid, 2'-[[[4-[1-oxo-3-(4-bromophenyl)propyl]phenyl]amino]-carbonyl]-] | 7.2 µM |
| O=C(O)c1ccccc1-c1ccccc1C(=O)Nc1ccc(CCc2ccc(Oc3ccccc3)cc2)cc1 [Example 52] | 13.2 µM |
| O=C(O)c1ccccc1-c1ccccc1C(=O)Nc1cccc(CCc2ccc(Oc3ccccc3)cc2)c1 [Example 53] | 2.4 µM |
| O=C(CCc1ccc(NC(=O)c2ccccc2-c2ccccc2C(=O)O)cc1)c1ccc(Oc2ccccc2)cc1 [Example 54, [1,1'-Biphenyl]-2-carboxylic acid, 2'-[[[4-[3-oxo-3-(4-phenoxyphenyl)propyl]phenyl]amino]carbonyl]-] | 17.1 µM |
| O=C(O)c1ccccc1-c1ccccc1C(=O)Nc1ccc(CCCc2ccc(Oc3ccccc3)cc2)cc1 [Example 55, [1,1'-Biphenyl]-2-carboxylic acid, 2'-[[[4-[3-(4-phenoxyphenyl)propyl]phenyl]amino]carbonyl]-] | 13.1 µM |
| O=C(CCCCc1ccc(Cl)c(Cl)c1)c1ccc(NC(=O)c2ccccc2-c2ccccc2C(=O)O)cc1 [Example 56, [1,1'-Biphenyl]-2-carboxylic acid, 2'-[[[4-[5-(3,4-dichlorophenyl)-1-oxopentyl]phenyl]amino]-carbonyl]-] | 3.8 µM |
| CC(CC(=O)CCc1ccc(NC(=O)c2ccccc2-c2ccccc2C(=O)O)cc1)c1ccccc1 (centres unmarked) [Example 57, [1,1'-Biphenyl]-2-carboxylic acid, 2'-[[[4-[5-phenyl-3-oxohexyl]phenyl]amino]carbonyl]-] | 44.9 µM |
| O=C(O)c1ccccc1-c1ccccc1C(=O)Nc1ccc(CCCCCc2ccc(Cl)c(Cl)c2)cc1 [Example 58, [1,1'-Biphenyl]-2-carboxylic acid, 2'-[[[4-[5-(3,4-dichlorophenyl]pentyl]phenyl]amino]carbonyl]-] | 7.3 µM |
